# Tests used:
# [1] = Encapsulation efficiency of lipid nanoparticles (Quant-it Ribogreen RNA quantification assay); assay type: physicochemical; details: LNP encapsulating hEPO mRNA; Table 3
# Procedure: (§1) Briefly, a cationic lipid provided herein, DSPC, cholesterol, and PEG-lipid were solubilized in ethanol at a molar ratio of 50:10:38.5:1.5, and mRNA were diluted in 10 to 50 mM citrate buffer, pH=4. The LNPs were prepared at a total lipid to mRNA weight ratio of approximately 10:1 to 30:1 by mixing the ethanolic lipid solution with the aqueous mRNA solution at a volume ratio of 1:3 using a microfluidic apparatus, total flow rate ranging from 9-30 mL/min. Ethanol were thereby removed and replaced by DPBS using dialysis. Finally, the lipid nanoparticles were filtered through a 0.2 μm sterile filter.
# (§2) Lipid nanoparticle size were determined by dynamic light scattering using a Malvern Zetasizer Nano ZS (Malvern UK) using a 173° backscatter detection mode. The encapsulation efficiency of lipid nanoparticles were determined using a Quant-it Ribogreen RNA quantification assay kit (Thermo Fisher Scientific, UK) according to the manufacturer's instructions.
# [2] = Lipid nanoparticle size by dynamic light scattering (Malvern Zetasizer Nano ZS); assay type: physicochemical; details: LNP: cationic lipid/DSPC/cholesterol/PEG-lipid 50:10:38.5:1.5, hEPO mRNA; Table 3
# Procedure: as §1, §2
# [3] = tested on: human erythropoietin (hEPO) mRNA; test: Animal study: hEPO expression after tail vein injection of LNPs encapsulating hEPO mRNA (serum ELISA); assay type: in vivo; details: hEPO level, female ICR mice, 0.5 mg/kg, 6 hours post administration, class symbols, Table 3
# Procedure: Lipid nanoparticles comprising compounds 1-10 encapsulating human erythropoietin (hEPO) mRNA were systemically administered to 6-8 week old female ICR mice (Xipuer-Bikai, Shanghai) at 0.5 mg/kg dose by tail vein injection and mice blood were sampled at specific time points (e.g., 6 hours) post administration. In addition to the aforementioned tested groups, lipid nanoparticles comprising dilinoleylmethyl-4-dimethylaminobutyrate (DLin-MC3-DMA, usually abbreviated to MC3) encapsulating hEPO mRNA were similarly administered at the same dose to age and gender comparative groups of mice as a positive control.
# Mice were euthanized by CO2 overdoses after the last sampling time point. Serum were separated from total blood by centrifugation at 5000 g for 10 minutes at 4° C., snap-frozen and stored at −80° C. for analysis. ELSA assay were carried out using a commercial kit (DEP00, R&D systems) according to manufacturer's instructions.
# Characteristics of tested lipid nanoparticles, including hEPO expression levels (μg/ml) measured from the tested group are listed the tables below and plotted in FIG. 2.
Compound,Encapsulation Efficiency [1] [%],polydispersity [2],size nm [2] [nm],Expression at 6 h (μg/ml) [3]
CCCCCCCCC(CCCCCC)COC(=O)CCCCCN(CCCCCC(=O)OCC(CCCCCC)CCCCCCCC)CCN(C1CCCCC1)C1CCC(O)CC1 (centres unmarked) [Compound 99],100.2,0.1,66.06,C (≥0.1 and <1)
CCCCCCCCC(CCCCCCCC)COC(=O)CCCCCN(CCCCCC(=O)OCC(CCCCCCCC)CCCCCCCC)CCN(C)C1CCC(O)CC1 (centres unmarked) [Compound 73],93.1,0.027,78.99,C (≥0.1 and <1)
CCCCCCCCC(CCCCCC)COC(=O)CCCCCN(CCCCCC(=O)OCC(CCCCCC)CCCCCCCC)CCN1CCC(O)CC1 (centres unmarked) [Compound 96],96.9,0.101,85.98,D (<0.1)
CCCCCCCCC(CCCCCC)COC(=O)CCCCCN(CCCCCC(=O)OCC(CCCCCC)CCCCCCCC)CCN(CC)C1CCC(O)CC1 (centres unmarked) [Compound 55],96.7,0.109,95.51,C (≥0.1 and <1)
CCCCCCCCC(CCCCCCCC)CNC(=O)CCCCCN(CCCCCC(=O)OCC(CCCCCCCC)CCCCCCCC)CCN(CCO)C1CCCC1 [Compound 136],94.29,0.063,61.17,A (≥2)
CCCCCCCCC(CCCCCCCC)COC(=O)CCCCCN(CCCCCC(=O)OCC(CCCCCCCC)CCCCCCCC)CCN(CCO)C1CC(c2ccccc2)C1 (centres unmarked) [Compound 76],91.71,0.096,54.94,C (≥0.1 and <1)
CCCCCCCCC(CCCCCC)COC(=O)CCCCCN(CCCCCC(=O)OCC(CCCCCC)CCCCCCCC)CCN(CCCCC)C1CCC(O)CC1 (centres unmarked) [Compound 61],83.4,0.087,65.04,A (≥2)
CCCCCCCCC(CCCCCCCC)COC(=O)COCCOCCN(CCOCCOCC(=O)OCC(CCCCCCCC)CCCCCCCC)CCN(CCO)C1CCC1 [Compound 103],94.41,0.054,67.57,C (≥0.1 and <1)
CCCCCCCCCCC(CCCCCC)COC(=O)CCCCCCN(CCCCCCC(=O)OCC(CCCCCC)CCCCCCCCCC)CCN(CCO)C1CCC1 (centres unmarked) [Compound 43],97.3,0.068,74.8,B (≥1 and <2)
CCCCCCCCC(CCCCCC)COC(=O)CCCCCN(CCCCCC(=O)OCC(CCCCCC)CCCCCCCC)CCN(CCOC(C)=O)C1CCC1 (centres unmarked) [Compound 64],84.1,0.181,84.93,D (<0.1)
CCCCCCCCC(CCCCCC)CC(=O)NCCCCCN(CCCCCOC(=O)CC(CCCCCC)CCCCCCCC)CCN(CCO)C1CCCCCC1 (centres unmarked) [Compound 132],88.00,0.129,70.33,A (≥2)
CCCCCCCCC(CCCCCC)CNC(=O)CCCCCN(CCCCCC(=O)NCC(CCCCCC)CCCCCCCC)CCN(CCO)C1CC1 (centres unmarked) [Compound 119],93.2,0.06,67.17,D (<0.1)
CCCCCCCCCCCCC(CCCCCC)COC(=O)CCCN(CCCC(=O)OCC(CCCCCC)CCCCCCCCCCCC)CCN(CCO)C1CCC1 (centres unmarked) [Compound 47],95.3,0.103,62.38,C (≥0.1 and <1)
CCCCCCCCC(CCCCCC)COC(=O)CCCCCC(CCCCCC(=O)OCC(CCCCCC)CCCCCCCC)CN(CCO)C1CCCCCCC1 (centres unmarked) [Compound 17],18.18,0.209,57.6,D (<0.1)
CCCCCCCCC(CCCCCC)CC(=O)COCCCCN(CCCCCOC(=O)CC(CCCCCC)CCCCCCCC)CCN(CCO)C1CCCCC1 (centres unmarked) [Compound 26],96.7,0.125,55.51,C (≥0.1 and <1)
CCCCCCCCC(CCCCCC)CNC(=O)CCCCCN(CCCCCC(=O)OCC(CCCCCC)CCCCCCCC)CCN(CCO)C1CCCCCC1 (centres unmarked) [Compound 128],86.10,0.107,79.73,A (≥2)
CCCCCCCCC(CCCCCC)CC(=O)NCCCCCN(CCCCCOC(=O)CC(CCCCCC)CCCCCCCC)CCN(CCO)C1CCCCC1 (centres unmarked) [Compound 131],80.00,0.064,79.11,A (≥2)
CCCCCCCCC(CCCCCC)COC(=O)CCCCCN(CCCCCC(=O)OCC(CCCCCC)CCCCCCCC)CCN(C)C1CCC(O)CC1 (centres unmarked) [Compound 54],97.2,0.051,102.7,D (<0.1)
CCCCCCCCC(CCCCCC)CNC(=O)CCCCCN(CCCCCC(=O)OCC(CCCCCC)CCCCCCCC)CCN(CCO)C1CCC1 (centres unmarked) [Compound 106],95.14,0.174,76.97,A (≥2)
CCCCCCCCC(CCCCCCCC)COC(=O)CCCCCN(CCCCCC(=O)OCC(CCCCCCCC)CCCCCCCC)CCN(CCC)C1CCCCC1O (centres unmarked) [Compound 69],78.3,0.06,58.74,D (<0.1)
CCCCCCCCC(CCCCCC)COC(=O)CCCCCN(CCCCCC(=O)OCC(CCCCCC)CCCCCCCC)CCN(CCO)C1CCN(C)CC1 (centres unmarked) [Compound 94],100.3,0.298,67.01,D (<0.1)
CCCCCCCCC(CCCCCC)CNC(=O)CCCCCN(CCCCCC(=O)NCC(CCCCCC)CCCCCCCC)CCN(CCO)C1CCC1 (centres unmarked) [Compound 107],95.64,0.11,106.9,A (≥2)
CCCCCCCCC(CCCCCCCC)COC(=O)CCCCCN(CCCCCC(=O)OCC(CCCCCCCC)CCCCCCCC)CCN(CCCCCC)C1CCC(O)CC1 (centres unmarked) [Compound 75],94.1,0.032,62.36,A (≥2)
CCCCCCCCC(CCCCCC)CNC(=O)CCCCCN(CCCCCC(=O)OCC(CCCCCC)CCCCCCCC)CCN(CCO)C1CCCC1 (centres unmarked) [Compound 126],100.10,0.101,78.17,A (≥2)
CCCCCCCCC(CCCCCC)CNC(=O)CCCCCN(CCCCCC(=O)NCC(CCCCCC)CCCCCCCC)CCN(CCO)C1CCCCCC1 (centres unmarked) [Compound 112],95.9,0.111,49.51,C (≥0.1 and <1)
CCCCCCCCC(CCCCCC)CNC(=O)CCCCCN(CCCCCC(=O)OCC(CCCCCC)CCCCCCCC)CCN(CCO)C1CCCCC1 (centres unmarked) [Compound 127],98.70,0.111,77.12,A (≥2)

# From patent US11472766B2, “Lipid nanoparticle composition” (Suzhou Abogen Biosciences Co., Ltd., priority 2020, dated 2022)
